What was measured:
HMLE-SNAIL spheroids = experiment: 3-D tumor spheroid assay (Sytox/DAPI staining); assay type: cell-based, human; settings: Sytox staining
Text: (§1) FIGS. 1F-1I show the results of a 3-D tumor spheroid assay formed by the chemotherapy-resistant breast cancer cell line, HMLE-SNAIL. […] Tumor spheroids are a model of real in vivo tumors, as they form a 3-D cell mass in which the hypoxic and often nutrient depleted microenvironment at the center of the tumor is enriched with mesenchymal, chemotherapy-resistant TIC cells. […] By staining spheroids with Sytox, which stains dead cells green, and DAPI, which stains the nuclei of all cells (living or dead), total fraction of dead cells is calculated. Also, the location of dead cells within the sphere is visualized with Sytox (green) staining. The results of FIGS. 1F-1I indicate that chaetocin a selective and potent killer of inner cells of the spheroids, enriched with mesenchymal, chemotherapy-resistant TIC cells, compared to other compounds tested. FIGS. 1J-1K show the results of a tumorsphere assay performed with TICs grown on serum-free, non-adherent culture conditions. […] The results of FIGS. 1J-1K indicate that chaetocin is effective in eliminating TICs in a dose dependent-manner.
To determine whether chaetocin affects TIC death in a tumor-like environment, 3-D tumor spheroid assays were performed in the presence or absence of chaetocin. Tumor spheroids are a model of a real tumor, as they form a 3-D cell mass similar to tumors in vivo. The local microenvironment of a spheroid recapitulates many of the in vivo properties of tumor. Importantly, the hypoxic and often nutrient depleted microenvironment at the center of the tumor is favorable for converting epithelial, non-TIC, chemotherapy-sensitive cancer cells into mesenchymal, TIC-rich, chemotherapy-resistant cells. […] Pharmacological agents were added and cell viability was calculated by staining cells with Sytox, which stains dead cells green, and DAPI, which stains the nuclei of all cells (living or dead). to provide the total cell number. Using this method, the total fraction of dead cells was calculated and compared between different drug conditions. More importantly, the location of dead cells within the sphere is visualized with Sytox (green) staining. FIGS. 1G-1I show fluorescence images of tumor spheroids under control conditions (no treatment; FIG. 1G), under treatment with various experimental chemotherapeutic agents (Y-27632, LY-450139, and IWP-L6 (Wnt); FIG. 1H), and with chaetocin treatment (FIG. 1I). […] This family of kinases are thought to be important for survival of TIC cells. IWP-L6 is an inhibitor of Wnt pathway—a pathway important for TIC cell survival and formation. LY-450139 is a NOTCH pathway inhibitor. NOTCH is also important for TIC cell viability and survival. […]

[1] = system: 786-0 and HMLE-Snail (E-Snail) cells versus WT7, HMLE, HK-2, NP-1 and BEAS-2B cells; experiment: Proliferation assay on normal and cancer cell lines; assay type: cell-based, human; settings: 100 nM chaetocin for 1 day
Text: Mesenchymal, TIC-rich, chemotherapy-resistant cell lines used in this experiment are the clear cell renal carcinoma cell line 786-0 and the human mammary epithelial (HMLE) cell line in which the zinc finger protein SNAI1 (SNAIL) is overexpressed, E-SNAIL. The isogenic epithelial, TIC-depleted, chemotherapy sensitive cell lines used as controls are the clear cell renal carcinoma cell line WT7 (modified 786-0 cells) and the human mammary epithelial (HMLE) cell with […].
To test if other mesenchymal, TIC-rich, chemotherapy resistant cell lines of different tissue origin (e.g. kidney) are also sensitive to chaetocin treatment, normal and cancerous breast (control) and renal cells were treated in culture with 100 nM chaetocin for 1 day, after which cell growth was assayed using a proliferation assay (FIG. 1C). The tested cells included a 786-0 clear cell renal cell carcinoma (ccRCC) cell line, which is defective in the Von Hippel-Lindau tumor suppressor (VHL), enriched in TIC, and difficult to eliminate by conventional chemotherapy in patients carrying this mutation. WT7 cell line is a modified 786-0 cell line in which VHL is re-introduced artificially, rendering them epithelial, TIC-depleted and susceptible to chemotherapy. […]

HMLE-TWIST cells [2] = experiment: CD44/CD24 FACS analysis after chaetocin pulse and washout; assay type: cell-based, human
Procedure: Cultured mesenchymal, TIC-rich HMLE-TWIST cells were treated with increasing concentrations of chaetocin for 2 days, washed and then incubated in chaetocin-free media for two days. CD44/CD24 FACS analyses were performed either immediately or two days after chaetocin removal.
CD44/CD24 FACS analyses either were performed either immediately or 6 days after chaetocin removal.
To determine whether a short pulse of the Suv39H1/H2 inhibitor, chaetocin, is sufficient to bring about an epigenetic change, cultured HMLE-TWIST cells (also referred to as ‘HMLE-TWIST TICs’ or ‘TICs’) were exposed to different doses of chaetocin for two days, followed by washout, and replacement with regular media. Cells were tracked for their phenotypic fate (e.g., CD44/CD24 marker expression) for another two or 6 days in chaetocin-free media. In this cell line, high CD44 and low CD24 expression indicate TIC cell populations. Cells that express CD24 are considered non-TICs. […] Next, to determine whether the epigenetic change persists for periods longer than two days, a separate experiment was performed in which HMLE-TWIST cells were treated with chaetocin for two days, followed by FACS analysis of CD24/CD44 expression either immediately after or 6 days after, as schematized in the top panel of FIG. 3M.

[3] = system: TICs (cancer stem/progenitor cells); experiment: Tumorsphere assay; assay type: cell-based; settings: 0, 30, 80 nM; 14 days of culture
Text: as §1
To further determine the effect of chaetocin on eliminating TICs, a tumorsphere assay was performed on cancer cells under increasing concentrations of chaetocin. A tumorsphere is a solid spherical formation developed from the proliferation of one cancer stem/progenitor cell. […]

HMLE-TWIST cells [4] = settings: 0.3 μM, 15 hours, versus untreated
Procedure: To determine whether the transcriptional changes associated with chaetocin treatment support this apparent change in cell state (reversal of mesenchymal fate), RNA-seq experiments were performed on cells treated for 15 hours with 0.3 μM of chaetocin after which total RNA was extracted and subjected to deep sequencing.
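Throughout, for Log2foldChange ALDH1A1: transcript levels measured by RNA-seq of total RNA extracted from treated cells, given as log2 change relative to untreated cells.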
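Throughout, for Log2foldChange BIRC5 (survivin-1): transcript levels measured by RNA-seq of total RNA extracted from treated cells, given as log2 change relative to untreated cells.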
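Throughout, for Log2foldChange CD24: transcript levels measured by RNA-seq of total RNA extracted from treated cells, given as log2 change relative to untreated cells.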
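Throughout, for Log2foldChange CDH1 (E-cadherin): transcript levels measured by RNA-seq of total RNA extracted from treated cells, given as log2 change relative to untreated cells.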

CN1C(=O)[C@@]23C[C@]4([C@]56C[C@@]78SS[C@](CO)(C(=O)N7[C@H]5Nc5ccccc56)N(C)C8=O)c5ccccc5N[C@@H]4N2C(=O)[C@@]1(CO)SS3 [chaetocin]
location of dead cells within spheroid (HMLE-SNAIL spheroids): preferentially and effectively kills the inner spheroid cells | inhibition of proliferation [1]: selectively inhibits the growth of mesenchymal, TIC-rich, chemotherapy resistant breast and kidney cancer cell lines | CD44/CD24 phenotype (TIC to non-TIC) (HMLE-TWIST cells [2]; 0.1, 0.15, 0.2, 0.5 μM for two days, immediately after treatment): converts TICs into non-TICs in a dose dependent manner | persistence of TIC to non-TIC conversion (HMLE-TWIST cells [2]; two or 6 days in chaetocin-free media): persist for up to six days after chaetocin removal | number of tumorspheres per well [3]: can eliminate TICs at low doses | Log2foldChange ALDH1A1 (HMLE-TWIST cells [4]): −2.01 | Log2foldChange BIRC5 (survivin-1) (HMLE-TWIST cells [4]): 0.491 | Log2foldChange CD24 (HMLE-TWIST cells [4]): −0.912 | Log2foldChange CDH1 (E-cadherin) (HMLE-TWIST cells [4]): 4.25 | Log2foldChange CLDN2 (HMLE-TWIST cells [4]): 6.00 | Log2foldChange CLDN4 (HMLE-TWIST cells [4]): 3.68 | Log2foldChange CLDN6 (HMLE-TWIST cells [4]): 7.30 | Log2foldChange CLDN9 (HMLE-TWIST cells [4]): 4.59 | Log2foldChange CLDN16 (HMLE-TWIST cells [4]): 2.77 | Log2foldChange CLDN23 (HMLE-TWIST cells [4]): 1.18 | Log2foldChange COL2A1 (HMLE-TWIST cells [4]): 4.34 | Log2foldChange CRB1 (HMLE-TWIST cells [4]): 9.40 | Log2foldChange CST6 (HMLE-TWIST cells [4]): 2.12 | Log2foldChange Errb2 (HMLE-TWIST cells [4]): −0.829 | Log2foldChange GJA1 (HMLE-TWIST cells [4]): −0.627 | Log2foldChange GLI-2 (HMLE-TWIST cells [4]): −0.941 | Log2foldChange KRT7 (HMLE-TWIST cells [4]): 1.59 | Log2foldChange KRT8 (HMLE-TWIST cells [4]): 1.30 | Log2foldChange KRT18 (HMLE-TWIST cells [4]): 1.95 | Log2foldChange KRT19 (HMLE-TWIST cells [4]): 4.46 | Log2foldChange KRT34 (HMLE-TWIST cells [4]): 5.49 | Log2foldChange KRT80 (HMLE-TWIST cells [4]): 1.24 | Log2foldChange KRT81 (HMLE-TWIST cells [4]): 1.47 | Log2foldChange KRT86 (HMLE-TWIST cells [4]): 3.10 | Log2foldChange LAMB1 (HMLE-TWIST cells [4]): −1.05 | Log2foldChange MMP14 (HMLE-TWIST cells [4]): −1.14 | Log2foldChange NRF-2 (HMLE-TWIST cells [4]): −0.862 | Log2foldChange Nanog (HMLE-TWIST cells [4]): −2.21 | Log2foldChange O ct4 (HMLE-TWIST cells [4]): −1.76 | Log2foldChange PTEN (HMLE-TWIST cells [4]): −0.780 | Log2foldChange SNAI2 (HMLE-TWIST cells [4]): −0.623 | Log2foldChange TWIST1 (HMLE-TWIST cells [4]): −0.549 | Log2foldChange WISP1 (HMLE-TWIST cells [4]): −1.06 | Log2foldChange ZEB1 (HMLE-TWIST cells [4]): −0.666
